Test results: ChEMBL document CHEMBL3621158, “Synthesis of new betulinic acidpeptide conjugates and in vivo and in silico studies of the influence of peptide moieties on the triterpenoid core activity” (2015)

What was measured:
Format in all cases: functional
Mus musculus [1] = test: Anti-inflammatory activity in mouse model of histamine-induced paw edema assessed as inhibition of inflammation at 50 mg/kg, ip dosed 1 hr before histamine injection
Mus musculus [2] = test: Anti-inflammatory activity in mouse model of histamine-induced paw edema assessed as inhibition of inflammation at 50 mg/kg, ip dosed 1 hr before histamine injection relative to 50 mg/kg, ip indomethacin
Mus musculus [3] = test: Anti-inflammatory activity in mouse model of histamine-induced paw edema assessed as inhibition of inflammation at 20 mg/kg, po dosed 1 hr before histamine injection

**Q.** Which results are given for `C=C(C)[C@@H]1CC[C@]2(C(=O)O)CC[C@]3(C)[C@H](CC[C@@H]4[C@@]5(C)CC[C@@](O)(c6cn(C[C@H](Cc7ccccc7)N(C(=O)[C@H](CO)NC(=O)OC(C)(C)C)C(=O)C(C)(C)NCc7ccc(OC)cc7OC)nn6)C(C)(C)[C@@H]5CC[C@]43C)[C@@H]12`?
**A.** inhibition in vivo at 50 mg/kg (Mus musculus [1]): 23%; inhibition in vivo at 50 mg/kg (Mus musculus [2]): 55%

**Q.** Which inhibition in vivo at 50 mg/kg (Mus musculus [1]) does the source give for `COc1ccc2c(c1)c(CC(=O)O)c(C)n2C(=O)c1ccc(Cl)cc1` [INDOMETHACIN] here?
**A.** 42%

**Q.** What about the inhibition in vivo at 50 mg/kg (Mus musculus [2]) of the same compound?
**A.** 78%

**Q.** And the inhibition in vivo at 20 mg/kg (Mus musculus [3])?
**A.** 32.8%

**Q.** Which inhibition in vivo at 50 mg/kg (Mus musculus [1]) does the source give for `C=C(C)[C@@H]1CC[C@]2(C(=O)O)CC[C@]3(C)[C@H](CC[C@@H]4[C@@]5(C)CC[C@@](O)(c6cn(C[C@H](C)N(C(=O)[C@@H](NC(=O)OC(C)(C)C)[C@@H](C)CC)C(=O)C(C)(C)NCc7ccc(OC)cc7OC)nn6)C(C)(C)[C@@H]5CC[C@]43C)[C@@H]12` here?
**A.** 31.2%

**Q.** What about the inhibition in vivo at 50 mg/kg (Mus musculus [2]) of the same compound?
**A.** 74.3%

**Q.** With `C=C(C)[C@@H]1CC[C@]2(C(=O)O)CC[C@]3(C)[C@H](CC[C@@H]4[C@@]5(C)CC[C@@](O)(c6cn(C[C@H](C)N(C(=O)[C@H](Cc7ccccc7)NC(=O)OC(C)(C)C)C(=O)C(C)(C)NCc7ccc(OC)cc7OC)nn6)C(C)(C)[C@@H]5CC[C@]43C)[C@@H]12` as the compound, how does the inhibition in vivo at 50 mg/kg (Mus musculus [1]) read?
**A.** 2.5%

**Q.** And the inhibition in vivo at 50 mg/kg (Mus musculus [2])?
**A.** 6%

**Q.** How did the inhibition in vivo at 50 mg/kg (Mus musculus [1]) turn out when `C=C(C)[C@@H]1CC[C@]2(C(=O)O)CC[C@]3(C)[C@H](CC[C@@H]4[C@@]5(C)CC[C@](O)(c6cn(C[C@H](C)N(C(=O)[C@@H](NC(=O)OC(C)(C)C)[C@@H](C)CC)C(=O)C(C)(C)NCc7ccc(OC)cc7OC)nn6)C(C)(C)[C@@H]5CC[C@]43C)[C@@H]12` was run?
**A.** 14.5%

**Q.** And the inhibition in vivo at 50 mg/kg (Mus musculus [2])?
**A.** 34.5%

**Q.** Which results are given for `C#C[C@]1(O)CC[C@]2(C)[C@H]3CC[C@@H]4[C@H]5[C@H](C(=C)C)CC[C@]5(C(=O)O)CC[C@@]4(C)[C@]3(C)CC[C@H]2C1(C)C`?
**A.** inhibition in vivo at 50 mg/kg (Mus musculus [1]): 25.2%; inhibition in vivo at 50 mg/kg (Mus musculus [2]): 60%

**Q.** What does the source list for `C=C(C)[C@@H]1CC[C@]2(C(=O)O)CC[C@]3(C)[C@H](CC[C@@H]4[C@@]5(C)CC[C@@](O)(c6cn(CCNC(=O)C(C)(C)N(Cc7ccc(OC)cc7OC)C(=O)[C@H](Cc7c[nH]cn7)NC(=O)OC(C)(C)C)nn6)C(C)(C)[C@@H]5CC[C@]43C)[C@@H]12`?
**A.** inhibition in vivo at 50 mg/kg (Mus musculus [1]): 33.4%; inhibition in vivo at 50 mg/kg (Mus musculus [2]): 79%

**Q.** With `C=C(C)[C@@H]1CC[C@]2(C(=O)O)CC[C@]3(C)[C@H](CC[C@@H]4[C@@]5(C)CC[C@@](O)(c6cn(C[C@H](Cc7ccccc7)N(C(=O)[C@H](Cc7cc8ccccc8[nH]7)NC(=O)OC(C)(C)C)C(=O)C(C)(C)NCc7ccc(OC)cc7OC)nn6)C(C)(C)[C@@H]5CC[C@]43C)[C@@H]12` as the compound, how does the inhibition in vivo at 50 mg/kg (Mus musculus [1]) read?
**A.** 38.8%

**Q.** What about the inhibition in vivo at 50 mg/kg (Mus musculus [2]) of the same compound?
**A.** 92%
